Measurements: PMC2948605 (Clinical cancer research : an official journal of the …, 2010)
One block for each compound: values may come before it.

Key:
[1] = Serum trough VPA concentration; type: in vivo, dog; conditions: 48 h after start of oral VPA, before fifth dose
[2] = tested on: canine and human osteosarcoma cells; conditions: cited from earlier work
[3] = tested on: WBC and neutrophil counts; test: Complete blood counts for myelosuppression; type: in vivo, dog
[4] = tested on: acetylated histone H3 in PBMC; test: PBMC histone H3 acetylation by immunofluorescence; type: in vivo, dog; conditions: fourteen evaluable PBMC samples, data not shown
[5] = tested on: dogs with spontaneous cancer
[6] = tested on: human patients; conditions: cited from earlier work
[7] = tested on: treatment-naïve lymphoma; conditions: DOX alone, treatment-naïve lymphoma in dogs; cited from earlier work
[8] = Doxorubicin and doxorubicinol pharmacokinetics in plasma by LC/MS/MS; type: in vivo, dog; conditions: three dogs, highest VPA cohort (240 mg/kg/day), IV DOX

SMILES: CCCC(CCC)C(=O)O [VPA, valproic acid]
Trough serum VPA level reached [1]: up to 0.5 mM
Effect of VPA pre-treatment on sensitivity to doxorubicin ([2]; canine and human osteosarcoma cells): results in sensitization to doxorubicin
VPA level capable of chemosensitization in vitro ([2]; previous work): 0.5 mM
Myelosuppression induced by VPA ([3]; doses up to 240 mg/kg/day, day 3 vs day 1 WBC and neutrophils): does not induce any significant myelosuppression
Potentiation of DOX induced myelosuppression ([3]; nadir WBC and neutrophil count day 7 post DOX vs VPA dose): no potentiation of DOX induced myelosuppression
Correlation of fold change in PBMC histone H3 acetylation with trough VPA levels [4]: did not correlate
Grade 3 metabolic event (ALKP > 5× ULN) ([5]; 180/90 mg/kg cohort, patient with Stage 5 lymphoma): single Grade 3 metabolic event
Grade 2 anorexia ([5]; 210/105 mg/kg cohort): single Grade 2 anorexia
Dose limiting toxicities ([5]; dogs at 240 mg/kg/day): no dose limiting toxicities
Tolerability ([5]; oral VPA, all dose-escalation cohorts): well tolerated in all dose-escalation cohorts
Maximum tolerated dose (MTD) ([5]; oral VPA, cohorts up to 240/120 mg/kg loading/maintenance): No maximum tolerated dose (MTD) was reached
VPA dose that can be administered prior to a standard dose of DOX ([5]; oral divalproex for 48 h before DOX, tumor-bearing dogs): up to 240 mg/kg/day
MTD in human Phase I studies [6]: 140 mg/kg/day

SMILES: COc1cccc2c1C(=O)c1c(O)c3c(c(O)c1C2=O)C[C@@](O)(C(=O)CO)C[C@@H]3O[C@H]1C[C@H](N)[C@H](O)[C@H](C)O1 [DOX, doxorubicin]
Cardiotoxicity ([5]; VPA pre-treated dogs, not directly evaluated, cumulative DOX dose < 150 mg/m^2): did not observe any obvious cardiotoxicity
Reported remission rates [7]: 60-85%

PK of the major metabolite versus historical controls receiving DOX alone [8]: no significant changes
SMILES: COc1cccc2c1C(=O)c1c(O)c3c(c(O)c1C2=O)C[C@@](O)([C@@H](O)CO)C[C@@H]3O[C@H]1C[C@H](N)[C@H](O)[C@H](C)O1 [doxorubicinol]
